Measurements from US20240254162A1, “CYCLOTHEONELLAZOLEA, AND SYNTHETIC METHOD THEREFOR, AND APPLICATION METHOD THEREOF” (The Second People's Hospital of Shenzhen(Shenzhen Institute …, priority 2022, published 2024).
Numbered stars: 1 amine (or outer) side, 2 acyl side, 3 side chain; on linkers, the order of the positions; unused ones are H or OH. Bridge positions count the residues as written; N and C are the ends. Square brackets hold non-standard residues; d marks the D form. Peptide text beside a SMILES is read from it. * marks the point of attachment. X2 = O=C(/C=C/c1csc([C@H](Cc2ccc(O)cc2)N[*:1])n1)[*:2]; X1 = CC[C@H](C)[C@H](N[*:1])C(=O)C(=O)[*:2]; Benzoyl(4-OH) = O=C(c1ccc(O)cc1)*; Cya = N[C@@H](CS(=O)(=O)O)C(=O)O; Nva = CCC[C@H](N)C(=O)O; Dap = NC[C@H](N)C(=O)O

Legend:
Type in all cases: biochemical
[1] = biological target: T1, neutrophil elastase (NE) (Homo sapiens, UniProt P08246); assay: Inhibition effect of CA on NE protease enzyme activity (Abcam NE protease detection kit ab118971, fluorescence); conditions: incubated at 37° C. for 5 min; Ex/Em=400/505 nm; FIG. 3
T1 construct: purchased Abcam ab118971
T1 sequence (P08246 30-267): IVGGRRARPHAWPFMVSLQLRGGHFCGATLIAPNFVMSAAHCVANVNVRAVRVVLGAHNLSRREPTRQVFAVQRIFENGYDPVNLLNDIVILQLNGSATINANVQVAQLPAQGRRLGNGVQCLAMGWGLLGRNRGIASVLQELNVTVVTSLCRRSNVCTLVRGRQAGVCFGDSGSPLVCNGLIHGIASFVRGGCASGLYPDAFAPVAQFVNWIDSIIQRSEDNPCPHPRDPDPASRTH
Protocol: • 1. Experimental materials include a NE protease detection kit (ab118971) of an Abcam company and CA. • 2. Experimental methods are as follows. In a black 96-well plate, a blank well group, a negative control well group and a sample well group are set, and a detection system is 100 μL. The blank well group is added with 75 μL of buffer, the negative control well group is added with 50 μL of NE protease and 25 μL of buffer, the sample well group is added with 50 μL of NE protease and 25 μL of CA solution (respectively with concentrations of 0.00001 μM, 0.0001 μM, 0.001 μM, 0.003 μM, 0.01 μM and 0.1 μM), and the three groups are incubated at a temperature of 37° C. for 5 min. Each well is added with 25 μL of substrate, after mixing evenly, fluorescence value of each well is immediately detected at Ex/Em=400/505 nm, every 20 seconds, and a dynamic process within a range of 0-40 min is observed. Two different time points (T1 and T2) are selected within a linear range of the dynamic process to obtain fluorescence values (RFUT1 and RFUT2) corresponding to the time points, a slope of the fluorescence values is calculated, and the slope can be regarded as an enzyme activity of each well. A formula of the slope is slope=(RFUT2−RFUT1)/(T2−T1). […] A half inhibitory concentration (IC50) is calculated through the Origin 2021 software. • 3.

[2] = biological target: T2, transmembrane serine protease 2 (TMPRSS2) (Homo sapiens, UniProt O15393); assay: Inhibition effect of CA on TMPRSS2 enzyme activity (BPS Bioscience TMPRSS2 detection kit 78083, fluorescence); conditions: incubated at room temperature for 30 min; Ex/Em=383/455 nm; FIG. 1
T2 construct: purchased BPS Bioscience 78083
T2 sequence (O15393 whole entry): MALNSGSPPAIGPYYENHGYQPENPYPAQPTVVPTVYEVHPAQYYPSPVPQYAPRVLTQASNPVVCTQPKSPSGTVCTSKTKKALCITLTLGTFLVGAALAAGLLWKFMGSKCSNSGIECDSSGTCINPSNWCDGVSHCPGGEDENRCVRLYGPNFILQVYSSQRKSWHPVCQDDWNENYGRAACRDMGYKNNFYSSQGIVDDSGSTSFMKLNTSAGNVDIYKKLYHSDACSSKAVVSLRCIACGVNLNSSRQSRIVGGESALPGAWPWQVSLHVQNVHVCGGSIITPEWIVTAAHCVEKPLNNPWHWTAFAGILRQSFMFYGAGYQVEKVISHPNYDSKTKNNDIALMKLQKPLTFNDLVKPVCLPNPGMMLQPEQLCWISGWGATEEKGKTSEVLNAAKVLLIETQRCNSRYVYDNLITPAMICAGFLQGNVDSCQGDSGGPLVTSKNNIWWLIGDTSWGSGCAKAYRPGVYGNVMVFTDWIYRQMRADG
Protocol: • 1. Experimental materials include a TMPRSS2 detection kit (78083) of a BPS Bioscience company and CA. • 2. Experimental methods are as follows. In a black 96-well plate, a blank well group, a negative control well group and a sample well group are set, and a detection system is 50 microliters (μL). The blank well group is added with 40 μL of buffer, the negative control well group is added with 30 μL of TMPRSS2 protease and 10 μL of buffer, the sample well group is added with 30 μL of TMPRSS2 protease and 10 μL of CA solution (respectively with concentrations of 0.1 micromole per liter abbreviated as μM, 1 μM, 10 μM, 30 μM, 100 μM, 150 μM, and 200 μM), and the three groups are incubated at the room temperature for 30 min. Each well is added with 10 μL of substrate, after mixing evenly, fluorescence value of each well is immediately detected at excitation/emission (Ex/Em)=383/455 nanometers (nm), every 30 seconds, and a dynamic process within a range of 0-40 min is observed. Two different time points (T1 and T2) are selected within a linear range of the dynamic process to obtain fluorescence values (RFUT1 and RFUT2) corresponding to the time points, a slope of the fluorescence values is calculated, and the slope can be regarded as an enzyme activity of each well. […] A half inhibitory concentration (IC50) is calculated through an Origin 2021 software. • 3.

[3] = biological target: T3, mainprotease (Mpro) of SARS-COV-2 virus (Severe acute respiratory syndrome coronavirus 2, UniProt P0DTD1); assay: Inhibition effect of CA on Mpro enzyme activity (BPS Bioscience Mpro detection kit 78042-2, fluorescence); conditions: incubated at room temperature for 30 min; Ex/Em=360/460 nm; FIG. 2
T3 construct: Mainprotease (Mpro) of SARS-COV-2 Virus; purchased BPS Bioscience 78042-2

Structure (SMILES): CCC[C@@H]1NC(=O)[C@@H](NC(=O)[C@H](C)NC(=O)CNC(=O)c2ccc(O)cc2)CNC(=O)[C@H](CS(=O)(=O)O)NC(=O)/C=C/c2csc(n2)[C@H](Cc2ccc(O)cc2)NC(=O)C(=O)[C@H]([C@@H](C)CC)NC1=O [CA, CyclotheonellazoleA] ({Benzoyl(4-OH)}-GA[Dap][Nva][X1][X2][Cya]; lactam 3-C)
- IC50 [1]: 0.001 µM
- IC50 [2]: 19.2 µM
- IC50 [3]: 159 µM
